± gives the expanded uncertainty stated by the source.
How the values were obtained:
[1] = cn = amount concentration of the nth substance listed, in mol/dm3; settings: 298.15 K, 101 kPa, Liquid; for viscosity: Capillary tube (Ostwald / Ubbelohde) method; for speed of sound: Linear variable-path acoustic interferometer; for mass density: Vibrating tube method
[2] = 298.15 K, 101.33 kPa, Liquid; for viscosity: Capillary tube (Ostwald / Ubbelohde) method; for speed of sound: Linear variable-path acoustic interferometer; for mass density: Vibrating tube method

CCCC[P+](CCCC)(CCCC)CCCC.F[B-](F)(F)F [tetrabutylphosphonium tetrafluoroborate] + C[S+](C)[O-]
[1]
Settings	mass density [kg/m3]	speed of sound [m/s]	viscosity [mPa·s]
c1 = 0.0046	1096.05 ± 0.31	1492.7 ± 2.1	1.952 ± 0.017
c1 = 0.0184	1096.4 ± 0.3	1501.5 ± 2.1	1.982 ± 0.018
c1 = 0.0323	1097.02 ± 0.31	1513.7 ± 2.1	2.015 ± 0.018
c1 = 0.0463	1097.84 ± 0.31	1527.9 ± 2.1	2.049 ± 0.018
c1 = 0.0604	1098.83 ± 0.32	1544.5 ± 2.1	2.085 ± 0.018
c1 = 0.0746	1099.98 ± 0.32	1564.6 ± 2.2	2.12 ± 0.019

C[S+](C)[O-] [dimethyl sulfoxide]
[2]
Settings	mass density [kg/m3]	speed of sound [m/s]	viscosity [mPa·s]
–	1096.02 ± 0.31	1490.8 ± 2.1	1.946 ± 0.017

CC(=O)N(C)C [N,N-dimethylethanamide]
[2]
Settings	mass density [kg/m3]	speed of sound [m/s]	viscosity [mPa·s]
–	936.8 ± 0.23	1458.5 ± 2	0.923 ± 0.01

CN(C)C=O [dimethylformamide]
[2]
Settings	mass density [kg/m3]	speed of sound [m/s]	viscosity [mPa·s]
–	944.5 ± 0.23	1451.7 ± 2	0.794 ± 0.009

CCCC[P+](CCCC)(CCCC)CCCC.F[B-](F)(F)F [tetrabutylphosphonium tetrafluoroborate] + CC(=O)N(C)C
[1]
Settings	mass density [kg/m3]	speed of sound [m/s]	viscosity [mPa·s]
c1 = 0.0053	937.22 ± 0.24	1461.8 ± 2.1	0.93 ± 0.01
c1 = 0.0215	938.69 ± 0.24	1473.5 ± 2.1	0.949 ± 0.01
c1 = 0.0377	940.34 ± 0.24	1486.9 ± 2.1	0.968 ± 0.01
c1 = 0.0541	942.13 ± 0.24	1501.6 ± 2.1	0.987 ± 0.01
c1 = 0.0705	944.01 ± 0.24	1517.8 ± 2.1	1.007 ± 0.01
c1 = 0.0871	945.94 ± 0.24	1536.3 ± 2.1	1.028 ± 0.01

CCCC[P+](CCCC)(CCCC)CCCC.F[B-](F)(F)F [tetrabutylphosphonium tetrafluoroborate] + CN(C)C=O
[1]
Settings	mass density [kg/m3]	speed of sound [m/s]	viscosity [mPa·s]
c1 = 0.0053	944.98 ± 0.24	1455.6 ± 2.1	0.802 ± 0.009
c1 = 0.0213	946.61 ± 0.24	1468.7 ± 2.1	0.82 ± 0.009
c1 = 0.0374	948.4 ± 0.2	1483.2 ± 2.1	0.837 ± 0.009
c1 = 0.0536	950.34 ± 0.24	1498.6 ± 2.1	0.854 ± 0.009
c1 = 0.0699	952.4 ± 0.2	1515.4 ± 2.1	0.871 ± 0.01
c1 = 0.0729	–	–	0.889 ± 0.01
c1 = 0.0863	954.5 ± 0.2	1533.8 ± 2.1	–
